In patent publication US10501461B2, “Tyrosine amide derivatives as Rho-kinase inhibitors” (CHIESI FARMACEUTICI S.P.A., priority 2017, dated 2019):
pKi: −log10 of the molar value.

Tests used:
Rho kinase 2 (ROCK-II) = Rho kinase 2 (ROCK-II) (Homo sapiens, UniProt O75116); test: In vitro Rho kinase inhibitory activity assay (ADP-Glo), Rho kinase 2; format: biochemical; conditions: 10 μM ATP, 25° C., expressed as range of activity
Protocol: (§1) The effectiveness of compounds of the present invention to inhibit Rho kinase activity can be determined in a 10 μl assay containing 40 mM Tris pH7.5, 20 mM MgCl2 0.1 mg/ml BSA, 50 μM DTT and 2.5 μM peptide substrate (Myelin Basic Protein) using an ADP-Glo kit (Promega). Compounds were dissolved in DMSO such that the final concentration of DMSO was 1% in the assay. All reactions/incubations are performed at 25° C. Compound (2 ul) and either Rho kinase 1 or 2 (4 μl) were mixed and incubated for 30 mins. Reactions were initiated by addition of ATP (4 μl) such that the final concentration of ATP in the assay was 10 μM. After a 1 hour incubation 10 μl of ADP-Glo Reagent was added and after a further 45 minute incubation 20 ul of Kinase Detection Buffer was added and the mixture incubated for a further 30 minutes. The luminescent signal was measured on a luminometer. […] Compounds were tested in dose-response format and the inhibition of kinase activity was calculated at each concentration of compound. To determine the IC50 (concentration of compound required to inhibit 50% of the enzyme activity) data were fit to a plot of % inhibition vs Log10 compound concentration using a sigmoidal fit with a variable slope and fixing the maximum to 100% and the minimum to 0%. To determine the Ki values the Cheng-Prusoff equation was utilized (Ki=IC50/(1+[S]/Km).

Rho kinase 1 (ROCK-I) = Rho kinase 1 (ROCK-I) (Homo sapiens, UniProt Q13464); test: In vitro Rho kinase inhibitory activity assay (ADP-Glo), Rho kinase 1; format: biochemical; conditions: 10 μM ATP, 25° C., expressed as range of activity
Protocol: as §1

Sequence of Rho kinase 2 (ROCK-II) (O75116 whole entry): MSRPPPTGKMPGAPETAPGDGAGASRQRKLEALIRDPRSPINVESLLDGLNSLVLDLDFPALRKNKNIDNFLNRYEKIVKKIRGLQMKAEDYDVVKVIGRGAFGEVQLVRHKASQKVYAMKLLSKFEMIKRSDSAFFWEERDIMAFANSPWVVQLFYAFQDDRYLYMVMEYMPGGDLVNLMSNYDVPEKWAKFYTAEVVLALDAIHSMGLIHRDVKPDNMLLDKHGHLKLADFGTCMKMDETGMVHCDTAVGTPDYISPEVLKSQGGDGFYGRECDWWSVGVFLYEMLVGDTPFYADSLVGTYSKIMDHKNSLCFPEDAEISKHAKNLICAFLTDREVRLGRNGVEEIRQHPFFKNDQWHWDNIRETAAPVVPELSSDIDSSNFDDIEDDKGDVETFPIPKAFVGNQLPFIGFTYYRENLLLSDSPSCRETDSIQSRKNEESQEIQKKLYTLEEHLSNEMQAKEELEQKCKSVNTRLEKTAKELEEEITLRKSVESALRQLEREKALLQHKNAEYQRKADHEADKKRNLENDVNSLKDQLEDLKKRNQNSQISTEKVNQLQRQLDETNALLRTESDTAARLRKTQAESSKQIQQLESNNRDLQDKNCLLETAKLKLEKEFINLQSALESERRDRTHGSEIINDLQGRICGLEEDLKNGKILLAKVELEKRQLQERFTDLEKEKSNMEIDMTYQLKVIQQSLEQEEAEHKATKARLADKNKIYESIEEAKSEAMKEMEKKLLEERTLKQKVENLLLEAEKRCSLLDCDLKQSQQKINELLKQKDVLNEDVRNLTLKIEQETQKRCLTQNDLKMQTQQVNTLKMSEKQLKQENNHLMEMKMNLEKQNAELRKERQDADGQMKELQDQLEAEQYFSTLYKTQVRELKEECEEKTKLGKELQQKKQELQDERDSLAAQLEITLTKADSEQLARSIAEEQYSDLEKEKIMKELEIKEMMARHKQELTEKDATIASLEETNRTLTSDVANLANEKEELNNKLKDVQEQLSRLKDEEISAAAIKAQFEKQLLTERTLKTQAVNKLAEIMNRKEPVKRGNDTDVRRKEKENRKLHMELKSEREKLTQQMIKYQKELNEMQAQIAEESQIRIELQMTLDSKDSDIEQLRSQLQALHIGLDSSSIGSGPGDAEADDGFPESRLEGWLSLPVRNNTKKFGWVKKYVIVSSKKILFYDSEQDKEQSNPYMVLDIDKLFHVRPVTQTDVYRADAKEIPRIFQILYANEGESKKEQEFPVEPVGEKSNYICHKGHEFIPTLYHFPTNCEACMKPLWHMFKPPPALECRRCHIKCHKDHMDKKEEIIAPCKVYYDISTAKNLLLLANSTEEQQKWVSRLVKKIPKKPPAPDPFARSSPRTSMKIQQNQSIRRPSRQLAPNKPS
Sequence of Rho kinase 1 (ROCK-I) (Q13464 whole entry): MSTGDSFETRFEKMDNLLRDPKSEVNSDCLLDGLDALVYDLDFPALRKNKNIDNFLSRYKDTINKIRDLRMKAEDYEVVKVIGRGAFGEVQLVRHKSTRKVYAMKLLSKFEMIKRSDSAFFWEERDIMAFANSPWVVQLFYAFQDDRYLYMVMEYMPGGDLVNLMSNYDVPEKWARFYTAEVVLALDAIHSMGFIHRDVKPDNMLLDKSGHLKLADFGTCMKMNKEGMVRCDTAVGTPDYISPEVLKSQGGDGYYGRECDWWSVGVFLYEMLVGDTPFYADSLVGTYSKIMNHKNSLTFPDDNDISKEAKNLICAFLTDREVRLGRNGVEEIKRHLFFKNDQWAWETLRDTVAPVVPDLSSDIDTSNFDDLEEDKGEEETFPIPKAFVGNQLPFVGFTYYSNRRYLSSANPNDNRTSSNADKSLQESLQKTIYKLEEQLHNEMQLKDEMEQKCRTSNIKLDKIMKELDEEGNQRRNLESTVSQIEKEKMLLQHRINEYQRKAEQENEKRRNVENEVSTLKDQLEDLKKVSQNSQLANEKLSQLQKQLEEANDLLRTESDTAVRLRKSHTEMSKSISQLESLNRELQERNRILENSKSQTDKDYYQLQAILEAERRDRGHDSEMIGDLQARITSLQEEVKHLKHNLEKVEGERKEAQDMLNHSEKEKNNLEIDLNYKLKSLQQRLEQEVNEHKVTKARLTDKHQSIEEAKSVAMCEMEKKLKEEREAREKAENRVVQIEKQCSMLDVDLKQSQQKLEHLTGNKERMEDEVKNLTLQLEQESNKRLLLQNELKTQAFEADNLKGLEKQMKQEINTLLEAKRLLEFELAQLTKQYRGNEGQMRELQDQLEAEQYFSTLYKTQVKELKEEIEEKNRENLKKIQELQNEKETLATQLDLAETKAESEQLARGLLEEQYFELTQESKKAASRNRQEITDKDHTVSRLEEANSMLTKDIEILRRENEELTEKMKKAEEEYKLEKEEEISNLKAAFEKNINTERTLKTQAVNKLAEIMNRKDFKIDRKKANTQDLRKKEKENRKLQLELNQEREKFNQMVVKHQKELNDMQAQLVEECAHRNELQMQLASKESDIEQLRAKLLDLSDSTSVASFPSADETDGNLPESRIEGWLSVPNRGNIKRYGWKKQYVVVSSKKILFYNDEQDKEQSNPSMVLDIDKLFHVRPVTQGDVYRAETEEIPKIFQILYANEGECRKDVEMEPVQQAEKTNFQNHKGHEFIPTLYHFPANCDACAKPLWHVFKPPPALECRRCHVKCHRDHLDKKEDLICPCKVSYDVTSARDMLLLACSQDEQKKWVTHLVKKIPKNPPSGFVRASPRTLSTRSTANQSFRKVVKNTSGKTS

SMILES	pKi (Rho kinase 2 (ROCK-II))	pKi (Rho kinase 1 (ROCK-I))
Cc1c[nH]c2nccc(Oc3ccc(C[C@H](N)C(=O)N4CCC(Cc5ccccc5)CC4)cc3F)c12 [Example 13, (S)-2-amino-1-(4-benzylpiperidin-1-yl)-3-(3-fluoro-4-((3-methyl-1H-pyrrolo[2,3-b]pyridin-4-yl)oxy)phenyl)propan-1-one]	> 8.52	> 8.52
Cc1c[nH]c2nccc(Oc3ccc(C[C@H](N)C(=O)N4CCC(N(C)C)CC4)cc3F)c12 [Example 14, (S)-2-amino-1-(4-(dimethylamino)piperidin-1-yl)-3-(3-fluoro-4-((3-methyl-1H-pyrrolo[2,3-b]pyridin-4-yl)oxy)phenyl)propan-1-one]	> 8.52	> 8.52
Cc1c[nH]c2nccc(Oc3ccc(C[C@H](N)C(=O)NCCCN(C)C)cc3F)c12 [Example 15, (S)-2-amino-N-(3-(dimethylamino)propyl)-3-(3-fluoro-4-((3-methyl-1H-pyrrolo[2,3-b]pyridin-4-yl)oxy)phenyl)propanamide]	> 8.52	> 8.52
Cc1c[nH]c2nccc(Oc3ccc(C[C@H](N)C(=O)N4CCN5CCOCC5C4)cc3F)c12 (stereo partly drawn) [Example 16, (2S)-2-amino-3-(3-fluoro-4-((3-methyl-1H-pyrrolo[2,3-b]pyridin-4-yl)oxy)phenyl)-1-(hexahydropyrazino[2,1-c][1,4]oxazin-8(1H)-yl)propan-1-one]	> 8.52	> 8.52
Cc1c[nH]c2nccc(Oc3ccc(C[C@H](N)C(=O)N4C[C@@H](C)N(C)[C@@H](C)C4)cc3F)c12 [Example 17, (S)-2-amino-3-(3-fluoro-4-((3-methyl-1H-pyrrolo[2,3-b]pyridin-4-yl)oxy)phenyl)-1-((3S,5R)-3,4,5-trimethylpiperazin-1-yl)propan-1-one]	> 8.52	> 8.52

The remaining lines, values ahead:

pKi (Rho kinase 2 (ROCK-II))	pKi (Rho kinase 1 (ROCK-I))	SMILES
> 8.52	> 8.52	Cc1c[nH]c2nccc(Oc3ccc(C[C@H](N)C(=O)N4CCN(C)C(C)(C)C4)cc3F)c12 [Example 18, (S)-2-amino-3-(3-fluoro-4-((3-methyl-1H-pyrrolo[2,3-b]pyridin-4-yl)oxy)phenyl)-1-(3,3,4-trimethylpiperazin-1-yl)propan-1-one]
> 8.52	> 8.52	COCCN1CCN(C(=O)C(N)Cc2ccc(Oc3ccnc4[nH]cc(C)c34)c(F)c2)CC1 (stereo not shown) [Example 19, 2-amino-3-(3-fluoro-4-((3-methyl-1H-pyrrolo[2,3-b]pyridin-4-yl)oxy)phenyl)-1-(4-(2-methoxyethyl)piperazin-1-yl)propan-1-one]
> 8.52	> 8.52	Cc1c[nH]c2nccc(Oc3ccc(C[C@H](N)C(=O)NC4CCCCC4)cc3F)c12 [Example 20, (S)-2-amino-N-cyclohexyl-3-(3-fluoro-4-((3-methyl-1H-pyrrolo[2,3-b]pyridin-4-yl)oxy)phenyl)propanamide]
> 8.52	> 8.52	Cc1c[nH]c2nccc(Oc3ccc(C[C@H](N)C(=O)N4CC=C(c5ccccc5)CC4)cc3F)c12 [Example 21, (S)-2-amino-3-(3-fluoro-4-((3-methyl-1H-pyrrolo[2,3-b]pyridin-4-yl)oxy)phenyl)-1-(4-phenyl-5,6-dihydropyridin-1(2H)-yl)propan-1-one]
> 8.52	> 8.52	Cc1c[nH]c2nccc(Oc3ccc(C[C@H](N)C(=O)N4CCN(S(=O)(=O)c5ccccc5)CC4)cc3F)c12 [Example 22, (S)-2-amino-3-(3-fluoro-4-((3-methyl-1H-pyrrolo[2,3-b]pyridin-4-yl)oxy)phenyl)-1-(4-(phenylsulfonyl)piperazin-1-yl)propan-1-one]
> 8.52	> 8.52	Cc1c[nH]c2nccc(Oc3ccc(C[C@H](N)C(=O)N4CCN(C(=O)N(C)C)CC4)cc3F)c12 [Example 23, (S)-4-(2-amino-3-(3-fluoro-4-((3-methyl-1H-pyrrolo[2,3-b]pyridin-4-yl)oxy)phenyl)propanoyl)-N,N-dimethylpiperazine-1-carboxamide]
